Consider 23 molecules from patent publication US11168083B2, “Inhibitors of Plasma Kallikrein and uses thereof” (Takeda Pharmaceutical Company Limited, priority 2017, dated 2021).

Bounds are passed on as bounds.

This assay concerns the target human activated kallikrein enzyme (Homo sapiens (Human), UniProt P03952). In words: Inhibition of human activated kallikrein enzyme, fluorogenic peptide substrate assay (two formats). It is filed as biochemical. The following applies: Table 2; column head prints nM, ranges defined in μM; read-out: pKal EC50. The procedure:
The example compounds were evaluated for inhibition of the human activated kallikrein enzyme in two formats of an assay employing a fluorogenic peptide substrate. In one assay format, the concentrations of reagents were as follows: 20 mM Tris pH 7.5, 1 mM EDTA, 150 mM sodium chloride, 0.1% PEG-400, 0.1% Triton X-100, 500 pM activated kallikrein enzyme, 300 uM Pro-Phe-Arg-7-amido-4-methylcoumarin substrate. Prior to reaction initiation with substrate, enzyme and inhibitors were preincubated for 30 min at room temperature. After initiation with substrate, reactions were incubated for 10 min at room temperature and fluorescence emission at 460 nm from 380 nm excitation measured with a microplate reader. In another assay format, the concentrations of reagents were as follows: 20 mM Tris pH 7.5, 1 mM EDTA, 150 mM sodium chloride, 0.1% PEG-400, 0.1% Triton X-100, 5 pM activated kallikrein enzyme, 300 uM Pro-Phe-Arg-7-amido-4-methylcoumarin substrate. Prior to reaction initiation with substrate, enzyme and inhibitors were preincubated for 30 min at room temperature. After initiation with substrate, reactions were incubated for 18 hr at room temperature and fluorescence emission at 460 nm from 380 nm excitation measured with a microplate reader.

Chain of human activated kallikrein enzyme (P03952 391-638): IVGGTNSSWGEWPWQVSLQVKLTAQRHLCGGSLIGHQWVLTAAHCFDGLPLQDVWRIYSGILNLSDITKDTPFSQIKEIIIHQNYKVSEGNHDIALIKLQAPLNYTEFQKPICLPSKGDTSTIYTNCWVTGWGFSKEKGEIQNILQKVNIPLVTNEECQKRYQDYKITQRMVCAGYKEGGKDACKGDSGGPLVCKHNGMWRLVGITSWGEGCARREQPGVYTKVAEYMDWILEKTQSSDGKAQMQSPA
Chain of human activated kallikrein enzyme (P03952 20-390 partner): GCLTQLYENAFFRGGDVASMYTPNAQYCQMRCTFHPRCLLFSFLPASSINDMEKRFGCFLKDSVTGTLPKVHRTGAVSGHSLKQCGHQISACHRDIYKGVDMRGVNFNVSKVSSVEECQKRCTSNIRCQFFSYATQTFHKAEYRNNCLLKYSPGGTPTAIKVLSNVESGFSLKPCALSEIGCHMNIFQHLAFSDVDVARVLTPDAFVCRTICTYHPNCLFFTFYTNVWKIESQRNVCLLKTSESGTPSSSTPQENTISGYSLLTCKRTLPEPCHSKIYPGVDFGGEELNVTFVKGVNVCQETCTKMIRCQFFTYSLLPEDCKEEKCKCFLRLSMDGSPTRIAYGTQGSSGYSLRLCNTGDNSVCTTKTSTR

Take `N=C(N)NCCCC[C@H](NC(=O)c1csc([C@@H]2C[C@@H](N)CN2C(=O)c2cn3cc(Cl)ccc3n2)n1)C(N)=O` [Compound 22, 2-((2S,4R)-4-amino-1-(6-chloroimidazo[1,2-a]pyridine-2-carbonyl)pyrrolidin-2-yl)-N—((S)-1-amino-6-guanidino-1-oxohexan-2-yl)thiazole-4-carboxamide]: the EC50 is ≤ 100 nM.

For `CNC(=O)[C@H](CCCCNC(=N)N)NC(=O)c1csc([C@@H]2C[C@@H](N)CN2C(=O)C2CCCCC2)n1` [Compound 17, 2-((2S,4R)-4-amino-1-(cyclohexanecarbonyl)pyrrolidin-2-yl)-N—((S)-6-guanidino-1-(methylamino)-1-oxohexan-2-yl)thiazole-4-carboxamide], the concentration for a half-maximal effect (EC50) was > 9900 nM.

`CNC(=O)[C@H](CCCCNC(=N)N)NC(=O)c1csc([C@@H]2C[C@@H](N)CN2C(=O)c2ccc3nc(Cl)ccc3c2)n1` [Compound 67, 2-((2S,4R)-4-amino-1-(2-chloroquinoline-6-carbonyl)pyrrolidin-2-yl)-N—((S)-6-guanidino-1-(methylamino)-1-oxohexan-2-yl)thiazole-4-carboxamide]: the EC50 was in the range of 1000 to 5000 nM.

Regarding `CNC(=O)[C@H](Cc1c[nH]cn1)NC(=O)c1csc([C@@H]2C[C@@H](N)CN2C(=O)c2cn3cc(Cl)ccc3n2)n1` [Compound 30, N—((S)-3-(1H-imidazol-4-yl)-1-(methylamino)-1-oxopropan-2-yl)-2-((2S,4R)-4-amino-1-(6-chloroimidazo[1,2-a]pyridine-2-carbonyl)pyrrolidin-2-yl)thiazole-4-carboxamide], the EC50 is > 9900 nM.

For the molecule `CNC(=O)[C@@H](CCCCNC(=N)N)NC(=O)c1csc([C@H]2C[C@@H](O)CN2C(=O)c2cn3cc(Cl)ccc3n2)n1` [Compound 10, 2-((2R,4R)-1-(6-Chloroimidazo[1,2-a]pyridine-2-carbonyl)-4-hydroxypyrrolidin-2-yl)-N—((R)-6-guanidino-1-(methylamino)-1-oxohexan-2-yl)thiazole-4-carboxamide], the EC50 was > 9900 nM.

Turning to `Cc1cc2c(N)nccc2c(C)c1CNC(=O)c1csc([C@@H]2C[C@@H](N)CN2C(=O)c2cn3cc(Cl)ccc3n2)n1` [Compound 60, 2-((2S,4R)-4-amino-1-(6-chloroimidazo[1,2-a]pyridine-2-carbonyl)pyrrolidin-2-yl)-N-((1-amino-5,7-dimethylisoquinolin-6-yl)methyl)thiazole-4-carboxamide], the EC50 was ≤ 100 nM.

In the case of `CNC(=O)[C@H](CCCCNC(=N)N)NC(=O)c1csc([C@@H]2C[C@@H](NC(C)=O)CN2C(=O)c2cn3cc(Cl)ccc3n2)n1` [Compound 35, 2-((2S,4R)-4-acetamido-1-(6-chloroimidazo[1,2-a]pyridine-2-carbonyl)pyrrolidin-2-yl)-N—((S)-6-guanidino-1-(methylamino)-1-oxohexan-2-yl)thiazole-4-carboxamide], the EC50 lay within 1000 to 5000 nM.

As for `CNC(=O)[C@H](CCCCNC(=N)N)NC(=O)c1csc([C@@H]2C[C@@H](N)CN2C(=O)OCc2cccc(Cl)c2)n1` [Compound 16, 3-chlorobenzyl (2S,4R)-4-amino-2-(4-(((S)-6-guanidino-1-(methylamino)-1-oxohexan-2-yl)carbamoyl)thiazol-2-yl)pyrrolidine-1-carboxylate], the concentration for a half-maximal effect (EC50) lay within 1000 to 5000 nM.

For `CNC(=O)[C@H](CCCCNC(=N)N)NC(=O)c1csc([C@@H]2C[C@@H](N)CN2C(=O)c2cc3ccc(Cl)cc3s2)n1` [Compound 62, 2-((2S,4R)-4-amino-1-(6-chlorobenzo[b]thiophene-2-carbonyl)pyrrolidin-2-yl)-N—((S)-6-guanidino-1-(methylamino)-1-oxohexan-2-yl)thiazole-4-carboxamide], the EC50 fell in the range of 100 to 1000 nM.

For `Cc1cc(N)nc(C)c1CCNC(=O)c1csc([C@@H]2C[C@@H](N)CN2C(=O)c2cn3cc(Cl)ccc3n2)n1` [Compound 52, 2-((2S,4R)-4-amino-1-(6-chloroimidazo[1,2-a]pyridine-2-carbonyl)pyrrolidin-2-yl)-N-(2-(6-amino-2,4-dimethylpyridin-3-yl)ethyl)thiazole-4-carboxamide], the EC50 is > 9900 nM.

As to `CNC(=O)[C@H](CCCCNC(=N)N)NC(=O)c1csc([C@@H]2C[C@H](O)CN2C(=O)c2cn3cc(Cl)ccc3n2)n1` [Compound 37, 2-((2S,4S)-1-(6-Chloroimidazo[1,2-a]pyridine-2-carbonyl)-4-hydroxypyrrolidin-2-yl)-N—((S)-6-guanidino-1-(methylamino)-1-oxohexan-2-yl)thiazole-4-carboxamide], the EC50 is 1000 to 5000 nM.

Regarding `CNC(=O)[C@H](CCCCNC(=N)N)NC(=O)c1csc([C@@H]2C[C@@H](N)CN2C(=O)c2cn(C)c(C)n2)n1` [Compound 14, 2-((2S,4R)-4-amino-1-(1,2-dimethyl-1H-imidazole-4-carbonyl)pyrrolidin-2-yl)-N—((S)-6-guanidino-1-(methylamino)-1-oxohexan-2-yl)thiazole-4-carboxamide], the EC50 was > 9900 nM.

Consider `CNC(=O)[C@H](Cc1c[nH]c2ccccc12)NC(=O)c1csc([C@@H]2C[C@@H](N)CN2C(=O)c2cn3cc(Cl)ccc3n2)n1` [Compound 31, N—((S)-3-(1H-indol-3-yl)-1-(methylamino)-1-oxopropan-2-yl)-2-((2S,4R)-4-amino-1-(6-chloroimidazo[1,2-a]pyridine-2-carbonyl)pyrrolidin-2-yl)thiazole-4-carboxamide], for which the EC50 is > 9900 nM.

For `CNC(=O)[C@H](Cc1ccc(O)cc1)NC(=O)c1csc([C@@H]2C[C@@H](N)CN2C(=O)c2cn3cc(Cl)ccc3n2)n1` [Compound 32, 2-((2S,4R)-4-amino-1-(6-chloroimidazo[1,2-a]pyridine-2-carbonyl)pyrrolidin-2-yl)-N—((S)-3-(4-hydroxyphenyl)-1-(methylamino)-1-oxopropan-2-yl)thiazole-4-carboxamide], the EC50 is > 9900 nM.

With `NCc1ccc(CNC(=O)c2csc([C@@H]3C[C@@H](N)CN3C(=O)c3cn4cc(Cl)ccc4n3)n2)cc1` [Compound 50, 2-((2S,4R)-4-amino-1-(6-chloroimidazo[1,2-a]pyridine-2-carbonyl)pyrrolidin-2-yl)-N-(4-(aminomethyl)benzyl)thiazole-4-carboxamide], the EC50 lay within 5000 to 9900 nM.

For `CNC(=O)[C@H](CCCCN)NC(=O)c1csc([C@@H]2C[C@@H](N)CN2C(=O)c2cn3cc(Cl)ccc3n2)n1` [Compound 25, 2-((2S,4R)-4-amino-1-(6-chloroimidazo[1,2-a]pyridine-2-carbonyl)pyrrolidin-2-yl)-N—((S)-6-amino-1-(methylamino)-1-oxohexan-2-yl)thiazole-4-carboxamide], the EC50 was > 9900 nM.

Consider `CNC(=O)[C@H](CCCCNC(=N)N)NC(=O)c1csc([C@@H]2C[C@@H](N)CN2C(=O)c2cn3ccccc3n2)n1` [Compound 13, 2-((2S,4R)-4-amino-1-(imidazo[1,2-a]pyridine-2-carbonyl)pyrrolidin-2-yl)-N—((S)-6-guanidino-1-(methylamino)-1-oxohexan-2-yl)thiazole-4-carboxamide], for which the EC50 was 100 to 1000 nM.

Take `CNC(=O)[C@H](CCCCNC(=N)N)NC(=O)c1csc([C@@H]2C[C@@H](N)CN2C(=O)c2cc3cc(Cl)ccc3s2)n1` [Compound 44, 2-((2S,4R)-4-amino-1-(5-chlorobenzo[b]thiophene-2-carbonyl)pyrrolidin-2-yl)-N—((S)-6-guanidino-1-(methylamino)-1-oxohexan-2-yl)thiazole-4-carboxamide]: the EC50 is 100 to 1000 nM.

In the case of `CNC(=O)[C@@H](CCCCNC(=N)N)NC(=O)c1csc([C@@H]2C[C@@H](N)CN2C(=O)c2cc3cc(Cl)ccc3s2)n1` [Compound 57, 2-((2S,4R)-4-amino-1-(5-chlorobenzo[b]thiophene-2-carbonyl)pyrrolidin-2-yl)-N—((R)-6-guanidino-1-(methylamino)-1-oxohexan-2-yl)thiazole-4-carboxamide], the concentration for a half-maximal effect (EC50) lay in the range of 1000 to 5000 nM.

Turning to `N=C(N)c1ccc(CCNC(=O)c2csc([C@@H]3C[C@@H](N)CN3C(=O)c3cn4cc(Cl)ccc4n3)n2)cc1` [Compound 51, 2-((2S,4R)-4-amino-1-(6-chloroimidazo[1,2-a]pyridine-2-carbonyl)pyrrolidin-2-yl)-N-(4-carbamimidoylphenethyl)thiazole-4-carboxamide], the EC50 is ≤ 100 nM.

`CNC(=O)[C@H](CCCCNC(=N)N)NC(=O)c1csc([C@@H]2C[C@@H](N)CN2C(=O)c2ccc3ncc(Cl)cc3c2)n1` [Compound 41, 2-((2S,4R)-4-amino-1-(3-chloroquinoline-6-carbonyl)pyrrolidin-2-yl)-N—((S)-6-guanidino-1-(methylamino)-1-oxohexan-2-yl)thiazole-4-carboxamide]: the EC50 is 100 to 1000 nM.

Regarding `CNC(=O)[C@H](CCCCNC(=N)N)NC(=O)c1csc([C@@H]2C[C@@H](N)CN2C(=O)c2cnc3ccc(Cl)cc3c2)n1` [Compound 66, 2-((2S,4R)-4-amino-1-(6-chloroquinoline-3-carbonyl)pyrrolidin-2-yl)-N—((S)-6-guanidino-1-(methylamino)-1-oxohexan-2-yl)thiazole-4-carboxamide], the EC50 is 100 to 1000 nM.

Take `N[C@@H]1C[C@@H](c2nc(C(=O)NCc3ccc4cc(Cl)ccc4c3)cs2)N(C(=O)c2cn3cc(Cl)ccc3n2)C1` [Compound 56, 2-((2S,4R)-4-amino-1-(6-chloroimidazo[1,2-a]pyridine-2-carbonyl)pyrrolidin-2-yl)-N-((6-chloronaphthalen-2-yl)methyl)thiazole-4-carboxamide]: the EC50 was > 9900 nM.
